Test results reported in patent US20220056043A1, “NITROGEN-CONTAINING FUSED CYCLIC COMPOUND, PREPARATION METHOD THEREFOR AND USE THEREOF” (SICHUAN KELUN-BIOTECH BIOPHARMACEUTICAL CO., LTD., priority 2019, published 2022).

Columns and labels:
hNLRP3 inflammasome = target: T1, hNLRP3 inflammasome (Homo sapiens, UniProt Q96P20); test: Agonistic effect on the expression of IL-1β in THP-1 cells after PMA-induced differentiation (HTRF); assay type: cell-based; settings: IL-1β level, PMA-differentiated THP-1 cells, 6 hours
T1 construct: endogenous in cells; host or cells: THP-1 cells, PMA-differentiated
T1 sequence (Q96P20 whole entry): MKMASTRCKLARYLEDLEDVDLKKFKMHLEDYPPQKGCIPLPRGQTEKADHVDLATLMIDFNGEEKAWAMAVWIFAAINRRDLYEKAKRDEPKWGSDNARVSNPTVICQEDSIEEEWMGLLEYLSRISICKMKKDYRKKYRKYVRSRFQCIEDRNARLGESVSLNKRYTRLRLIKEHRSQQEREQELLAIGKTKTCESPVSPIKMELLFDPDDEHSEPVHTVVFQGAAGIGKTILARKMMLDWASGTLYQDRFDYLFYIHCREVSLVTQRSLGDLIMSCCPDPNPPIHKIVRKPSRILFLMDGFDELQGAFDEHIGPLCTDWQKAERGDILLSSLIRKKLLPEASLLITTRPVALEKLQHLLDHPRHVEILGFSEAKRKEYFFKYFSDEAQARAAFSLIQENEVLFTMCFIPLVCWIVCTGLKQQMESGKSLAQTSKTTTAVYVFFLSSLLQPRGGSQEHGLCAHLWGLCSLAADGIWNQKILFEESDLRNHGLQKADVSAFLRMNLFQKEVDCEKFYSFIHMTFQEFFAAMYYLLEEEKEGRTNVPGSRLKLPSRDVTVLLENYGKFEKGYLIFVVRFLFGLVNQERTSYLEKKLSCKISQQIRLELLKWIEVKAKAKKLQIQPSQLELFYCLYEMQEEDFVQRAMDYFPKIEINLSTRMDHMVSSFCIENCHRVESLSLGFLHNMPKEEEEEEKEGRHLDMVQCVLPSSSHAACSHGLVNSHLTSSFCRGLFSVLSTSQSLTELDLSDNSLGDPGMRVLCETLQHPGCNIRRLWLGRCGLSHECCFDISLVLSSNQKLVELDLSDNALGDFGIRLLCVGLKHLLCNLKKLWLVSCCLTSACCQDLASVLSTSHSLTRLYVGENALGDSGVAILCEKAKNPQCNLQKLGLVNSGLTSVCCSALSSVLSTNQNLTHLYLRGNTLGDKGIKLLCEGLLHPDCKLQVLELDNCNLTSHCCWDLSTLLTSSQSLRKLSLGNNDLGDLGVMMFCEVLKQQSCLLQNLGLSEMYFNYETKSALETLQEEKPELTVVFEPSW
From the text: Experimental Example 1: Agonistic Effect of the Compound of the Invention on the Expression of IL-1β in THP-1 Cells after PMA-Induced Differentiation
In this test, a HTRF (homogeneous time-resolved fluorescence) detection method was used to test the effect of the compound of the invention on the level of downstream cytokine IL-1β of NLRP3 to evaluate the agonistic effect of the compound on hNLRP3 inflammasome or hNLRP3 inflammasome pathway at a cellular level.
Reagent: RPMI 1640 (Hyclone); heat-inactivated FBS (fetal bovine serum) (Gibco); PMA (phorbol myristal acetate) (Beyotime)
Kit: IL-1β assay kit (CISIO)
1) THP-1 cells in a logarithmic growth phase were seeded in a T75 culture flask at a density of 5×10^5 cells/well, and cultured in a cell incubator at 37° C., 5% CO2 for 24 hours, and then 1 μM PMA was used to induce THP-1 suspension cells to become adherent macrophages. The medium was RPMI 1640 containing 10% heat-inactivated FBS and 0.05 mM β-mercaptoethanol.
2) The cells were induced and cultured for 24 hours. Then the adherent cells were trypsinized and centrifuged at 1000 rpm for 5 min. The supernatant was removed, and the cells were resuspended to a density of 2×10^6 cells/mL in RPMI 1640 medium containing 2% heat-inactivated FBS. 50 μL/well of cell resuspension was taken and spread on a 96-well plate such that the number of cells in each well was 1×10^5.
3) An appropriate amount of 10 mM DMSO solution of the compound to be tested was taken and diluted to a concentration of 2× test concentration with RPMI 1640 medium containing 2% heat-inactivated FBS. 50 μL/well of the dilution was added to the cells in the 96-well plate, and mixed well. The plate was placed in a cell incubator at 37° C., 5% CO2 for 6 hours. The supernatant was collected, and the level of IL-1β was measured in accordance with the instructions of the IL-1β detection kit.
4) EC50 was fitted by the GraphPad software log(agonist) vs. response—Variable slope four-parameter method.

hTLR7 = target: T2, hTLR7 (Homo sapiens, UniProt Q9NYK1); test: Agonistic effect on hTLR7, HEK-hTLR7-NF-κB-Luciferase reporter cells; assay type: cell-based; settings: 16 hours
T2 construct: host or cells: HEK-hTLR7-NF-κB-Luciferase cells
T2 sequence (Q9NYK1 27-1049): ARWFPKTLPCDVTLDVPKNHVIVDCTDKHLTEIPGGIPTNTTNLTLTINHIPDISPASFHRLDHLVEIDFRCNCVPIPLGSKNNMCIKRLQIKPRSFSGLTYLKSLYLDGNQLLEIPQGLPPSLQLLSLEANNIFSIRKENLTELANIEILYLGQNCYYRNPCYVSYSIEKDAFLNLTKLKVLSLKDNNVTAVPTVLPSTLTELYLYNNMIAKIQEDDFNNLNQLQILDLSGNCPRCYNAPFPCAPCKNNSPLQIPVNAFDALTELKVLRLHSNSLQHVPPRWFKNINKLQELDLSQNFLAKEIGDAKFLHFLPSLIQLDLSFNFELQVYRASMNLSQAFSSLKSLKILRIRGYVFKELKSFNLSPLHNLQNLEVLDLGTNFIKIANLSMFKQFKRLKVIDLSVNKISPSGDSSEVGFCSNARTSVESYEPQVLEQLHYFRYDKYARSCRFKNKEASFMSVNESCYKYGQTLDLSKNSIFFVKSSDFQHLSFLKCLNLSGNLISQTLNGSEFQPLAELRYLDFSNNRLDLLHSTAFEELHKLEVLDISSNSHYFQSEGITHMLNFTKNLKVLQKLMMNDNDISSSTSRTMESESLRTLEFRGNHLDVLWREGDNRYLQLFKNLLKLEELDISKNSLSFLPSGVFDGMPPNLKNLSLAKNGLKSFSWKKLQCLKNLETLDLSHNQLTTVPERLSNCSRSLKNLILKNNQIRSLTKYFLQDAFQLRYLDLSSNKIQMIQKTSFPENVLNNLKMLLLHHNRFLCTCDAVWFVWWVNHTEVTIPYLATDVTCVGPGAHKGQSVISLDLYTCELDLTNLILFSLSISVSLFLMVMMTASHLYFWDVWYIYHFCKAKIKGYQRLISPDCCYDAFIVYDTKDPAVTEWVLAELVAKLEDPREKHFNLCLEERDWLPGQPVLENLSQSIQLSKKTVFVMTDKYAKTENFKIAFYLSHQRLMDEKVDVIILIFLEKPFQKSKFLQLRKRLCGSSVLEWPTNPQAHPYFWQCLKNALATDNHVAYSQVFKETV
From the text: Experimental Example 3: Agonistic Effect of the Compound of the Invention on hTLR7
In this test, the luciferase in HEK-hTLR7-NF-κB-reporter cells was detected to test the activating effect of the compound of the invention on TLR7 signaling pathway, so as to evaluate the specificity of the agonistic effect of the compound on NLRP3 pathway.
Reagents: DMEM (High glucose); FBS (fetal bovine serum) (Gibco); Bright-Glo™ Luciferase detection kit (Promega)
Cells: HEK-hTLR7-NF-κB-Luciferase gene cells (human TLR7 NF-κB-luciferase reporter gene cells) (Nanjing Cobioer)
1) The HEK-hTLR7-NF-κB-Luciferase cells in a logarithmic growth phase were trypsinized and resuspended in the medium to a concentration of 2×10^6 cells/mL. 50 μL/well of the cell resuspension was added to a 96-well plate such that the number of cells in each well was […]. An appropriate amount of 10 mM DMSO solution of the compound to be tested was taken and diluted to a concentration of 2× test concentration with the medium. 50 μL/well was added to the cells in the 96-well plate, and the 96-well plate was incubated in an incubator at 37° C. and 5% CO2 for 16 hours. The medium was DMEM (High glucose) containing 10% FBS.
2) After the cell incubation, 100 μL/well of Bright-Glo™ Luciferase detection reagent was added, and the mixture was incubated at room temperature for 5 minutes. Relative luciferase activity unit (RLU) was read using a microplate reader.
3) The EC50 of effect of the tested compound to stimulate hTLR7 was fitted by the GraphPad software log(agonist) vs. response—Variable slope four-parameter method.

SMILES	EC50 (hNLRP3 inflammasome)	EC50 (hTLR7)
C[C@@H]1COCCN1c1cc(N)nc2cc(-c3ccn[nH]3)sc12 [Compound 177]	0.03 µM	> 100000 nM
CN1CCC[C@@H](Nc2cc(N)nc3cc(-c4ccn[nH]4)sc23)C1 [Compound 104, (R)—N^7-(1-methylpiperidin-3-yl)-2-(1H-pyrazol-5-yl)thieno[3,2-b]pyridine-5,7-diamine]	0.17 µM	> 100000 nM
CC(=O)NCCNc1cc(N)nc2cc(-c3ccn[nH]3)sc12 [Compound 52]	0.2 µM	> 100000 nM
Nc1cc(NCc2ccccn2)c2sc(-c3ccn[nH]3)cc2n1 [Compound 59, 2-(1H-pyrazol-5-yl)-N^7-(pyridin-2-ylmethyl)thieno[3,2-b]pyridine-5,7-diamine]	0.1 µM	> 100000 nM
Nc1cc(N2CCN(C3CCCCC3)CC2)c2sc(-c3ccn[nH]3)cc2n1 [Compound 167]	0.01 µM	> 100000 nM
Nc1cc(N2CCOCC2)c2sc(-c3ccn[nH]3)cc2n1 [Compound 170]	0.02 µM	> 100000 nM
Nc1cc(NCC(F)(F)c2ccccn2)c2sc(-c3ccn[nH]3)cc2n1 [Compound 97, N^7-(2,2-difluoro-2-(pyridin-2-yl)ethyl)-2-(1H-pyrazol-5-yl)thieno[3,2-b]pyridine-5,7-diamine]	0.03 µM	> 100000 nM
CC1(CNc2cc(N)nc3cc(-c4ccn[nH]4)sc23)COC1 [Compound 121, N^7-((3-methyloxetan-3-yl)methyl)-2-(1H-pyrazol-5-yl)thieno[3,2-b]pyridine-5,7-diamine]	0.03 µM	> 100000 nM
CCC(CC)Nc1cc(N)nc2cc(-c3ccn[nH]3)sc12 [Compound 113, N^7-(pent-3-yl)-2-(1H-pyrazol-5-yl)thieno[3,2-b]pyridine-5,7-diamine]	0.03 µM	> 100000 nM
Nc1cc(N[C@H]2CC[C@H](O)C2)c2sc(-c3ccn[nH]3)cc2n1 [Compound 26, (1S,3S)-3-((5-amino-2-(1H-pyrazol-5-yl)thieno[3,2-b]pyridin-7-yl)amino)cyclopentanol]	0.1 µM	> 100000 nM
Nc1cc(N2CCC(O)CC2)c2sc(-c3ccn[nH]3)cc2n1 [Compound 172]	0.03 µM	> 100000 nM
Nc1cc(N2CCCC(O)C2)c2sc(-c3ccn[nH]3)cc2n1 (centres unmarked) [Compound 166]	0.34 µM	> 100000 nM
Cc1c(-c2cc[nH]n2)sc2c(NCCN3CCOCC3)cc(N)nc12 [Compound 153]	4.29 µM	> 100000 nM
CCC(=O)N(C)CCNc1cc(N)nc2cc(-c3ccn[nH]3)sc12 [Compound 88, N-(2-((5-amino-2-(1H-pyrazol-5-yl)thieno[3,2-b]pyridin-7-yl)amino)ethyl)-N-methylpropionamide]	0.04 µM	> 100000 nM
Cc1c(-c2cc[nH]n2)sc2c(NCC3CC3)cc(N)nc12 [Compound 156]	5.01 µM	> 100000 nM
Nc1cc(N2CCN(C3CCCC3)CC2)c2sc(-c3ccn[nH]3)cc2n1 [Compound 160]	0.11 µM	> 100000 nM

SMILES	EC50 (hNLRP3 inflammasome)	EC50 (hTLR7)
Nc1cc(NCCCO)c2sc(-c3ccccc3)cc2n1 [Compound 93, 3-((5-amino-2-phenylthieno[3,2-b]pyridin-7-yl)amino)-1-propanol]	0.18 µM	> 100000 nM
CC1(C)CN(c2cc(N)nc3cc(-c4ccn[nH]4)sc23)CCO1 [Compound 171]	0.03 µM	> 100000 nM
Nc1cc(NC[C@@H]2CCCO2)c2sc(-c3ccn[nH]3)cc2n1 [Compound 105, (S)-2-(1H-pyrazol-5-yl)-N^7-((tetrahydrofuran-2-yl)methyl)thieno[3,2-b]pyridine-5,7-diamine]	0.03 µM	> 100000 nM
CC(=O)NCCCNc1cc(N)nc2cc(-c3ccn[nH]3)sc12 [Compound 53]	0.18 µM	> 100000 nM
Nc1cc(NC2CC(O)C2)c2sc(-c3ccn[nH]3)cc2n1 (centres unmarked) [Compound 40, 3-((5-amino-2-(1H-pyrazol-5-yl)thieno[3,2-b]pyridin-7-yl)amino)cyclobutanol]	0.39 µM	> 100000 nM
COC1CCN(c2cc(N)nc3cc(-c4ccn[nH]4)sc23)C1 (centres unmarked) [Compound 180]	0.01 µM	> 100000 nM
COC(C)(C)CNc1cc(N)nc2cc(-c3ccn[nH]3)sc12 [Compound 111, N^7-(2′-methoxy-2′-methylpropyl)-2-(1H-pyrazol-5-yl)thieno[3,2-b]pyridine-5,7-diamine]	0.23 µM	> 100000 nM
CC(C)N1CCN(c2cc(N)nc3cc(-c4ccn[nH]4)sc23)CC1 [Compound 162]	0.01 µM	> 100000 nM
Nc1cc(N2CCN(c3ccccc3)CC2)c2sc(-c3ccn[nH]3)cc2n1 [Compound 174]	0.34 µM	> 100000 nM
Nc1cc(N[C@@H]2CCC[C@@H]2O)c2sc(-c3ccn[nH]3)cc2n1 [Compound 96, (1S,2R)-2-((5-amino-2-(1H-pyrazol-5-yl)thieno[3,2-b]pyridin-7-yl)amino)cyclopentanol]	0.07 µM	> 100000 nM
CN1CCN(CCCNc2cc(N)nc3cc(-c4ccn[nH]4)sc23)CC1 [Compound 54, N^7-(3-(4-methylpiperazin-1-yl)propyl)-2-(1H-pyrazol-5-yl)thieno[3,2-b]pyridine-5,7-diamine]	0.92 µM	> 100000 nM
CS(=O)(=O)N1CCN(c2cc(N)nc3cc(-c4ccn[nH]4)sc23)CC1 [Compound 164]	0.006 µM	> 100000 nM
CN1CCN(c2cc(N)nc3cc(-c4ccn[nH]4)sc23)CC1 [Compound 161]	0.18 µM	> 100000 nM
Nc1cc(N2CC3CC(C2)N3C=O)c2sc(-c3ccn[nH]3)cc2n1 [Compound 179]	0.05 µM	> 100000 nM
C[C@@H](CO)Nc1cc(N)nc2cc(-c3ccn[nH]3)sc12 [Compound 108, (S)-2-((5-amino-2-(1H-pyrazol-5-yl)thieno[3,2-b]pyridin-7-yl)amino)propanol]	0.34 µM	> 100000 nM
